Experimental data taken from paper PMC10349806 (Nature Communications, 2023).
“And” between values parts separate entries of the source, which are not always exact repeats. Identical values can stand only once.

Assays:
[1] = system: CCN(CC)CCCC(C)Nc1ccnc2cc(Cl)ccc12; assay: Drug uptake assay, X. laevis oocytes expressing PfCRT^Dd2; format: cell-based, Plasmodium falciparum; details: 18.0 °C
Description: Oocytes were obtained as described previously[24]. Briefly, adult (>2 years old) female X. laevis frogs (NASCO) were anesthetized in a cooled solution of ethyl 3-amino benzoate methanesulfonate (0.1%, w/v), followed by a surgical removal of parts of the ovary. The ovary lobes were carefully dissected and small pieces of oocytes were incubated in Ca^2+-free ND96 buffer (96 mM NaCl, 2 mM KCl, 1 mM MgCl2 buffered with 5 mM HEPES/NaOH, pH 7.5) supplemented with collagenase D (0.1%, w/v; Roche), BSA (0.5%, w/v), and 9 mm Na2HPO4 at 18 °C for 14-16 h while gentle shaking. After incubation, the oocytes were carefully washed several times with ND96 buffer (96 mM NaCl, 2 mM KCl, 1.8 mM CaCl2, 1 mM MgCl2 buffered with 5 mM HEPES/NaOH, pH 7.5) supplemented with 100 mg l^−1 gentamycin). Defolliculated and healthy-looking stage V-VI oocytes were manually selected for RNA microinjection. […]
Drug uptake assays were performed as described previously[21],[22],[24],[34]. […] Oocytes that were injected with water instead of RNA were analyzed in parallel, representing the uptake of a drug by diffusion and/or endogenous permeation pathways. […] The specific PfCRT-mediated uptake was determined by subtracting the corresponding background value measured in water-injected oocytes from that of PfCRT-expressing oocytes. […]

[2] = molecular target: PfCRT^Dd2 (Plasmodium falciparum, UniProt Q9N623, A220S/I356T/K76T/M74I/N326S/N75E/Q271E/R371I); assay: as above; format: cell-based; details: for PfCRTDd2 transport activity pH 6.0: 50 µM external drug, 1 h, independent samples (means in Fig 4c)
PfCRT^Dd2, sequence (Q9N623 whole entry A220S/I356T/K76T/M74I/N326S/N75E/Q271E/R371I): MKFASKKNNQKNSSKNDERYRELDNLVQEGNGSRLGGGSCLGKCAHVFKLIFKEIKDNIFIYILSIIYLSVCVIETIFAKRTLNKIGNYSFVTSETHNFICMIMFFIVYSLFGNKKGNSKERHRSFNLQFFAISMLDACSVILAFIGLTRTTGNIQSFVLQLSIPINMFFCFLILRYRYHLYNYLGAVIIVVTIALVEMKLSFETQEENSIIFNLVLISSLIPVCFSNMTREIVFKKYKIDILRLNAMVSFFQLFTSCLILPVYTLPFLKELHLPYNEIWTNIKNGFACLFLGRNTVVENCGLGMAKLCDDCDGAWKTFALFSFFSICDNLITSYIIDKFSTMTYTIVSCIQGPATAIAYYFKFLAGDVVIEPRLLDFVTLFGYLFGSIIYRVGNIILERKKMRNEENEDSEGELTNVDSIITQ
Description: (§1) Oocytes were obtained as described previously. Briefly, adult (>2 years old) female X. laevis frogs (NASCO) were anesthetized in a cooled solution of ethyl 3-amino benzoate methanesulfonate (0.1%, w/v), followed by a surgical removal of parts of the ovary. The ovary lobes were carefully dissected and small pieces of oocytes were incubated in Ca^2+-free ND96 buffer (96 mM NaCl, 2 mM KCl, 1 mM MgCl2 buffered with 5 mM HEPES/NaOH, pH 7.5) supplemented with collagenase D (0.1%, w/v; Roche), BSA (0.5%, w/v), and 9 mm Na2HPO4 at 18 °C for 14-16 h while gentle shaking. After incubation, the oocytes were carefully washed several times with ND96 buffer (96 mM NaCl, 2 mM KCl, 1.8 mM CaCl2, 1 mM MgCl2 buffered with 5 mM HEPES/NaOH, pH 7.5) supplemented with 100 mg l^−1 gentamycin). Defolliculated and healthy-looking stage V-VI oocytes were manually selected for RNA microinjection. The RNA was generated as following: The codon-optimized sequences of PfCRT variants were cloned into the pSP64T expression vector. After vector linearization using the restriction endonucleases BamHI or SalI (New England Biolabs), transcription was performed using the in vitro SP6 mMessage mMachine Kit (Ambion)[34]. The obtained RNA was kept at −80 °C and diluted with nuclease-free water to a concentration of 0.6 μg μl^−1. Precision-bore glass capillary tubes (3.5-inch glass capillaries; Drummond Scientific Co.) were pulled on a vertical puller (P-87 Flaming/Brown micropipette puller, Sutter Instrument Co.), graduated, and placed on a microinjector (Nanoject II Auto-Nanoliter Injector, Drummond Scientific Co.). 50 nl of nuclease-free water alone (control oocytes) or 50 nl of 0.6 μg μl^−1 RNA were injected under stereomicroscopic control. Injected oocytes were incubated for 46–72 h at 18 °C with twice-daily buffer changes before usage in experiments.
Drug uptake assays were performed as described previously[21],[22],[24],[34]. […] The direction of radio-labeled drug transport is here from the mostly acidic extracellular solution (pH 4.5 or 6.0, as indicated) into the oocyte cytosol (pH ∼ 7.2), which corresponds to the efflux of drug from the acidic digestive vacuole (pH 5.2) into the parasite cytoplasm (pH 7.2). The topology of PfCRT in the oolemma is such that both the N- and C-terminus face the extracellular milieu[3],[22]. In the parasite, the N- and C-terminus face the lumen of the digestive vacuole. […] For determination of the amount of drug uptake for each oocyte, the reaction medium was removed and the oocytes were washed three times with 2 ml of ice-cold ND96 buffer. Each oocyte was individually transferred to a scintillation vial containing 5% sodium dodecyl sulfate (200 μl) for lysis. […] Oocytes that were injected with water instead of RNA were analyzed in parallel, representing the uptake of a drug by diffusion and/or endogenous permeation pathways. The resulting value represents the “background“ level of drug accumulation in oocytes (in-depth discussion in[22]). The specific PfCRT-mediated uptake was determined by subtracting the corresponding background value measured in water-injected oocytes from that of PfCRT-expressing oocytes. In all cases, at least three separate experiments were performed on oocytes from different frogs (biological replicate), and for each condition in an experiment, measurements were made from 10 oocytes per treatment. For pH 5.5, 6.0, and 6.5, ND96 was buffered with 5 mM MES/Tris base. For pH 4.5, 5 mM Homo-Pipes was used as a buffer and 5 mM HEPES for uptake at pH 7.0.

[3] = system: PfCRT variant E207A; assay: Drug uptake assay, oocytes expressing E207A; format: cell-based, Plasmodium falciparum; details: for E207A transport activity pH 6.0 / E207A transport activity pH 4.5: 50 µM external drug, 1 h
Description: Site-directed mutagenesis of PfCRT^Dd2 was performed as described using the megaprimer method with overlap extension[21],[54]. The primer pairs used are listed in Supplementary Table 6. Please note that a codon-optimized and oocyte-adapted version of PfCRT^Dd2 was used[22] (Supplementary Fig. 16). The resulting DNA fragment was cloned into the SP64T expression vector and verified by sequencing.
as §1
Drug uptake assays were performed as described previously[21],[22],[24],[34]. […] The direction of radio-labeled drug transport is here from the mostly acidic extracellular solution (pH 4.5 or 6.0, as indicated) into the oocyte cytosol (pH ∼ 7.2), which corresponds to the efflux of drug from the acidic digestive vacuole (pH 5.2) into the parasite cytoplasm (pH 7.2). The topology of PfCRT in the oolemma is such that both the N- and C-terminus face the extracellular milieu[3],[22]. In the parasite, the N- and C-terminus face the lumen of the digestive vacuole. […] For determination of the amount of drug uptake for each oocyte, the reaction medium was removed and the oocytes were washed three times with 2 ml of ice-cold ND96 buffer. Each oocyte was individually transferred to a scintillation vial containing 5% sodium dodecyl sulfate (200 μl) for lysis. […] Oocytes that were injected with water instead of RNA were analyzed in parallel, representing the uptake of a drug by diffusion and/or endogenous permeation pathways. The resulting value represents the “background“ level of drug accumulation in oocytes (in-depth discussion in[22]). The specific PfCRT-mediated uptake was determined by subtracting the corresponding background value measured in water-injected oocytes from that of PfCRT-expressing oocytes. In all cases, at least three separate experiments were performed on oocytes from different frogs (biological replicate), and for each condition in an experiment, measurements were made from 10 oocytes per treatment. For pH 5.5, 6.0, and 6.5, ND96 was buffered with 5 mM MES/Tris base.

[4] = CQ transport in the presence of verapamil, independent samples

Molecule	PfCRTDd2 transport activity pH 6.0 [2]	E207A transport activity pH 6.0 ([3]; independent samples)	E207A transport activity pH 4.5 ([3]; independent samples)	other results
PfCRT^Dd2 (Plasmodium falciparum; A220S/I356T/K76T/M74I/N326S/N75E/Q271E/R371I)				Km ([1]; other: PfCRT^Dd2, pH 4.5, pH 4.5): 200 ± 60 µM; Km ([1]; other: PfCRT^Dd2, pH 6.0, pH 6.0): 270 ± 50 µM
CC[C@]1(O)C[C@@H]2CN(CCc3c([nH]c4ccccc34)[C@@](C(=O)OC)(c3cc4c(cc3OC)N(C)[C@H]3[C@@](O)(C(=O)OC)[C@H](OC(C)=O)[C@]5(CC)C=CCN6CC[C@]43[C@@H]65)C2)C1 [VNB, vinblastine]	n.u.	n.u.		transport of the drug by PfCRT^Dd2 ([2]; pH 6.0, in words): Neither PfCRT^Dd2 nor E207A acted on; transport of the drug by E207A ([3]; pH 6.0, in words): Neither PfCRT^Dd2 nor E207A acted on
C=C[C@H]1C[N@@]2CC[C@H]1C[C@@H]2[C@@H](O)c1ccnc2ccc(OC)cc12 [QD, quinidine]	4.23 pmol oocyte-1 h-1 and 3.26 pmol oocyte-1 h-1 and 4.00 pmol oocyte-1 h-1 and 4.74 pmol oocyte-1 h-1 and 4.12 pmol oocyte-1 h-1 and 4.59 pmol oocyte-1 h-1	2.30 pmol oocyte-1 h-1 and 2.18 pmol oocyte-1 h-1 and 1.61 pmol oocyte-1 h-1 and 1.77 pmol oocyte-1 h-1 and 2.20 pmol oocyte-1 h-1	1.55 pmol oocyte-1 h-1 and 1.47 pmol oocyte-1 h-1 and 1.04 pmol oocyte-1 h-1 and 1.61 pmol oocyte-1 h-1	
NC12CC3CC(CC(C3)C1)C2 [AMA, amantadine]	3.96 pmol oocyte-1 h-1 and 5.23 pmol oocyte-1 h-1 and 3.48 pmol oocyte-1 h-1			
C=C[C@H]1C[N@@]2CC[C@H]1C[C@H]2[C@H](O)c1ccnc2ccc(OC)cc12 [QN, quinine]	6.11 pmol oocyte-1 h-1 and 5.59 pmol oocyte-1 h-1 and 5.35 pmol oocyte-1 h-1 and 4.57 pmol oocyte-1 h-1	2.22 pmol oocyte-1 h-1 and 1.72 pmol oocyte-1 h-1 and 2.41 pmol oocyte-1 h-1 and 2.60 pmol oocyte-1 h-1	1.81 pmol oocyte-1 h-1 and 1.79 pmol oocyte-1 h-1 and 2.22 pmol oocyte-1 h-1 and 1.30 pmol oocyte-1 h-1 and 1.76 pmol oocyte-1 h-1	
Clc1ccc2c(N3CCN(CCCN4CCN(c5ccnc6cc(Cl)ccc56)CC4)CC3)ccnc2c1 [PPQ, piperaquine]	28.14 pmol oocyte-1 h-1 and 21.87 pmol oocyte-1 h-1 and 30.01 pmol oocyte-1 h-1 and 33.33 pmol oocyte-1 h-1	8.93 pmol oocyte-1 h-1 and 12.01 pmol oocyte-1 h-1 and 12.48 pmol oocyte-1 h-1 and 12.86 pmol oocyte-1 h-1	9.66 pmol oocyte-1 h-1 and 9.12 pmol oocyte-1 h-1 and 9.57 pmol oocyte-1 h-1 and 5.62 pmol oocyte-1 h-1	
CC[C@]1(O)C[C@H]2CN(CCc3c([nH]c4ccccc34)[C@@](C(=O)OC)(c3cc4c(cc3OC)N(C=O)[C@H]3[C@@](O)(C(=O)OC)[C@H](OC(C)=O)[C@]5(CC)C=CCN6CC[C@]43[C@@H]65)C2)C1 [VNC, vincristine]	n.u.	n.u.		transport of the drug by PfCRT^Dd2 ([2]; pH 6.0, in words): Neither PfCRT^Dd2 nor E207A acted on; transport of the drug by E207A ([3]; pH 6.0, in words): Neither PfCRT^Dd2 nor E207A acted on
COc1ccc(CCN(C)CCCC(C#N)(c2ccc(OC)c(OC)c2)C(C)C)cc1OC (stereo not drawn) [VP, verapamil]				PfCRTDd2 CQ + VP transport activity pH 6.0 [2, 4]: 1.45 pmol oocyte-1 h-1 and 1.56 pmol oocyte-1 h-1 and 1.71 pmol oocyte-1 h-1 and 1.84 pmol oocyte-1 h-1; effect on CQ transport by PfCRT^Dd2 ([2]; pH 6.0, in words): blocked CQ transport; E207A CQ + VP transport activity pH 6.0 [3, 4]: 0.66 pmol oocyte-1 h-1 and 0.74 pmol oocyte-1 h-1 and 0.45 pmol oocyte-1 h-1; effect on CQ transport by E207A ([3]; pH 6.0, in words): blocked CQ transport
